Source: PubChem BioAssay (NCI)
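Step 1: Grow cells in 96-well plates. Step 2: Expose to compound for 48 hours at 5 concentrations. Step 3: Interpolate endpoints linearly; if unreached, use highest concentration. GI50 = concentration required for 50% inhibition of growth. The concentration for full growth arrest is given as TGI.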

What was measured:
Assay in all cases: DTP human tumour cell line panel, 48 h
HOP-62 NSCLC = system: HOP-62 NSCLC
IGROV1 ovarian = system: IGROV1 ovarian
DU-145 prostate = system: DU-145 prostate
HCT-15 colon = system: HCT-15 colon
NCI-H226 lung = system: NCI-H226 lung
OVCAR-4 ovarian = system: OVCAR-4 ovarian
MDA-MB-435 = system: MDA-MB-435
SF-268 CNS = system: SF-268 CNS
SK-OV-3 ovarian = system: SK-OV-3 ovarian
KM12 colon = system: KM12 colon
HS 578T breast = system: HS 578T breast
ACHN renal = system: ACHN renal
HCT-116 colon = system: HCT-116 colon
OVCAR-5 ovarian = system: OVCAR-5 ovarian
BT-549 breast = system: BT-549 breast
SK-MEL-5 melanoma = system: SK-MEL-5 melanoma
T-47D breast = system: T-47D breast
NCI-H460 lung = system: NCI-H460 lung
NCI/ADR-RES ovarian = system: NCI/ADR-RES ovarian
MDA-MB-231 breast = system: MDA-MB-231 breast
786-0 renal = system: 786-0 renal
M14 melanoma = system: M14 melanoma
PC-3 prostate = system: PC-3 prostate
OVCAR-3 ovarian = system: OVCAR-3 ovarian
HL-60(TB) leukemia = system: HL-60(TB) leukemia
NCI-H23 lung = system: NCI-H23 lung
SNB-19 CNS = system: SNB-19 CNS
SK-MEL-2 melanoma = system: SK-MEL-2 melanoma
UACC-62 melanoma = system: UACC-62 melanoma

**Q.** How did the GI50 (HOP-62 NSCLC) turn out when O=C(Nc1cccc(-c2cccc(F)c2)c1)C1CCN(Cc2cccc3cccnc23)CC1 was run?
**A.** Its GI50 is 3.78 µM.

**Q.** What about the TGI (HOP-62 NSCLC) of the same compound?
**A.** Its TGI is 15.7 µM.

**Q.** What about the GI50 (IGROV1 ovarian) of the same compound?
**A.** The GI50 was 2.1 µM.

**Q.** What about the TGI (IGROV1 ovarian) of the same compound?
**A.** The TGI was 4.74 µM.

**Q.** What about the GI50 (DU-145 prostate) of the same compound?
**A.** Its GI50 is 4.36 µM.

**Q.** What about the TGI (DU-145 prostate) of the same compound?
**A.** The TGI was 15.6 µM.

**Q.** And the GI50 (HCT-15 colon)?
**A.** The GI50 was 1.79 µM.

**Q.** And the TGI (HCT-15 colon)?
**A.** Its TGI is 5.16 µM.

**Q.** What about the GI50 (NCI-H226 lung) of the same compound?
**A.** The GI50 was 3.15 µM.

**Q.** And the TGI (NCI-H226 lung)?
**A.** Its TGI is 17.2 µM.

**Q.** And the GI50 (OVCAR-4 ovarian)?
**A.** Its GI50 is 3.57 µM.

**Q.** What about the TGI (OVCAR-4 ovarian) of the same compound?
**A.** Its TGI is 14.1 µM.

**Q.** And the GI50 (MDA-MB-435)?
**A.** The GI50 was 1.69 µM.

**Q.** And the TGI (MDA-MB-435)?
**A.** Its TGI is 3.19 µM.

**Q.** What about the GI50 (SF-268 CNS) of the same compound?
**A.** The GI50 was 4.05 µM.

**Q.** What about the TGI (SF-268 CNS) of the same compound?
**A.** The TGI was 16.1 µM.

**Q.** And the GI50 (SK-OV-3 ovarian)?
**A.** The GI50 was 4.67 µM.

**Q.** And the TGI (SK-OV-3 ovarian)?
**A.** Its TGI is 16.9 µM.

**Q.** And the GI50 (KM12 colon)?
**A.** Its GI50 is 3.16 µM.

**Q.** What about the TGI (KM12 colon) of the same compound?
**A.** The TGI was 10.3 µM.

**Q.** And the GI50 (HS 578T breast)?
**A.** Its GI50 is 1.91 µM.

**Q.** What about the TGI (HS 578T breast) of the same compound?
**A.** Its TGI is 4.55 µM.

**Q.** And the GI50 (ACHN renal)?
**A.** The GI50 was 2.28 µM.

**Q.** What about the TGI (ACHN renal) of the same compound?
**A.** The TGI was 5.67 µM.

**Q.** And the GI50 (HCT-116 colon)?
**A.** Its GI50 is 1.71 µM.

**Q.** And the TGI (HCT-116 colon)?
**A.** The TGI was 3.08 µM.

**Q.** What about the GI50 (OVCAR-5 ovarian) of the same compound?
**A.** Its GI50 is 2.93 µM.

**Q.** And the TGI (OVCAR-5 ovarian)?
**A.** Its TGI is 11.8 µM.

**Q.** And the GI50 (BT-549 breast)?
**A.** The GI50 was 1.79 µM.

**Q.** What about the TGI (BT-549 breast) of the same compound?
**A.** Its TGI is 3.3 µM.

**Q.** And the GI50 (SK-MEL-5 melanoma)?
**A.** Its GI50 is 1.64 µM.

**Q.** And the TGI (SK-MEL-5 melanoma)?
**A.** Its TGI is 3.06 µM.

**Q.** And the GI50 (T-47D breast)?
**A.** Its GI50 is 2 µM.

**Q.** And the TGI (T-47D breast)?
**A.** Its TGI is 5.83 µM.

**Q.** What about the GI50 (NCI-H460 lung) of the same compound?
**A.** Its GI50 is 1.92 µM.

**Q.** What about the TGI (NCI-H460 lung) of the same compound?
**A.** The TGI was 3.77 µM.

**Q.** What about the GI50 (NCI/ADR-RES ovarian) of the same compound?
**A.** Its GI50 is 2.76 µM.

**Q.** And the TGI (NCI/ADR-RES ovarian)?
**A.** Its TGI is 10.2 µM.

**Q.** What about the GI50 (MDA-MB-231 breast) of the same compound?
**A.** The GI50 was 1.9 µM.

**Q.** And the TGI (MDA-MB-231 breast)?
**A.** The TGI was 3.99 µM.

**Q.** And the GI50 (786-0 renal)?
**A.** The GI50 was 1.58 µM.

**Q.** And the TGI (786-0 renal)?
**A.** Its TGI is 3.02 µM.

**Q.** And the GI50 (M14 melanoma)?
**A.** The GI50 was 1.75 µM.

**Q.** What about the TGI (M14 melanoma) of the same compound?
**A.** The TGI was 3.3 µM.

**Q.** What about the GI50 (PC-3 prostate) of the same compound?
**A.** Its GI50 is 2.21 µM.

**Q.** What about the TGI (PC-3 prostate) of the same compound?
**A.** Its TGI is 7.09 µM.

**Q.** And the GI50 (OVCAR-3 ovarian)?
**A.** Its GI50 is 3.51 µM.

**Q.** What about the TGI (OVCAR-3 ovarian) of the same compound?
**A.** The TGI was 13.2 µM.

**Q.** And the GI50 (HL-60(TB) leukemia)?
**A.** The GI50 was 1.94 µM.

**Q.** What about the TGI (HL-60(TB) leukemia) of the same compound?
**A.** Its TGI is 4.2 µM.

**Q.** And the GI50 (NCI-H23 lung)?
**A.** Its GI50 is 3.16 µM.

**Q.** What about the TGI (NCI-H23 lung) of the same compound?
**A.** Its TGI is 13 µM.

**Q.** What about the GI50 (SNB-19 CNS) of the same compound?
**A.** The GI50 was 2 µM.

**Q.** And the TGI (SNB-19 CNS)?
**A.** Its TGI is 4.83 µM.

**Q.** What about the GI50 (SK-MEL-2 melanoma) of the same compound?
**A.** The GI50 was 2.03 µM.

**Q.** And the TGI (SK-MEL-2 melanoma)?
**A.** Its TGI is 4.29 µM.

**Q.** What about the GI50 (UACC-62 melanoma) of the same compound?
**A.** Its GI50 is 1.73 µM.
